According to patent publication US12226455B2, “Medical composition for treating cardiac wasting and cachexia” (RELAXERA Pharmazeutische GmbH & Co. KG, priority 2019, dated 2025):
Marks after values point to notes of the source that are not given here.

Key:
[1] = test system: patients with advanced cancer in the hospice setting; test: Level of general wellbeing relative to baseline on a seven-level Likert scale (clinical study); assay type: in vivo, human; settings: 25 micrograms/kg body weight/day, n=20
Description: (§1) 30 patients with advanced cancer in the hospice setting are included randomized and double-blind in a clinical study to a 10-day continuous sc. or iv. infusion of either synthetic human relaxin-2 (25 micrograms/kg body weight/day) (n=20) or placebo (n=10). The following exploratory clinical end-points are assessed at baseline and during treatment (day 3 and day 10): • 1. Patients are asked to report their current level of both dyspnea and general wellbeing relative to baseline using seven-level Likert scales. • 2. In the context of this study, ability of self-care is defined as ability to perform the measures of personal daily hygiene (washing, tooth-brushing) without help. • 3. Congestion is assessed as percentage of patients showing ankle edema or rales upon auscultation. • 4. Plasma levels of NT-proBNP (N-terminal fragment of pro-brain natriuretic peptide), a biomarker of cardiac decompensation, are determined. • 5. The four-meter gait speed (4MGS) is measured.

[2] = continuous subcutaneous infusion over 24 weeks; cited from earlier work
[3] = test system: NT-proBNP; test: Plasma levels of NT-proBNP, biomarker of cardiac decompensation (clinical study); assay type: in vivo, human; settings: n=20; for Plasma NT-proBNP, median: 25 micrograms/kg body weight/day
Description: as §1

[4] = test system: patients with advanced cancer in the hospice setting; test: Four-meter gait speed (4MGS) (clinical study); assay type: in vivo, human; settings: n=20
Description: as §1

[5] = test system: patients with advanced cancer in the hospice setting; test: Level of dyspnea relative to baseline on a seven-level Likert scale (clinical study); assay type: in vivo, human; settings: n=20
Description: as §1

[6] = test system: patients with advanced cancer in the hospice setting; test: Congestion: ankle edema or rales upon auscultation, four-level scale (clinical study); assay type: in vivo, human; settings: n=20
Description: as §1

[7] = test system: patients with advanced cancer in the hospice setting; test: Ability of self-care (personal daily hygiene without help), yes-or-no level (clinical study); assay type: in vivo, human; settings: n=20
Description: as §1

[8] = test system: hospice patients with advanced, incurable cancer; test: Overall conclusion of the 10-day clinical study in hospice patients; assay type: in vivo, human; settings: continuous treatment for 10 days
Description: as §1

[9] = Day 3, 25 micrograms/kg body weight/day
[10] = Day 10, 25 micrograms/kg body weight/day
[11] = Day 3, 25 micrograms/kg body weight/day continuous sc. or iv. infusion

human relaxin-2
Level of general wellbeing: markedly or moderately improved, absolute number of patients ([1]; Day 3): 9 | Level of general wellbeing: markedly or moderately improved, percentage of patients ([1]; Day 3): (45)# % | Level of general wellbeing: markedly or moderately worsened, absolute number of patients ([1]; Day 3): 2 | Level of general wellbeing: markedly or moderately worsened, percentage of patients ([1]; Day 3): (10)# % | Level of general wellbeing: markedly or moderately improved, absolute number of patients ([1]; Day 10): 11 | Level of general wellbeing: markedly or moderately improved, percentage of patients ([1]; Day 10): (55)# % | Level of general wellbeing: markedly or moderately worsened, absolute number of patients ([1]; Day 10): 1 | Level of general wellbeing: markedly or moderately worsened, percentage of patients ([1]; Day 10): 5% | Physiological changes under relaxin infusion [2]: sustained physiological changes which closely mimicked those seen in human pregnancy | Plasma NT-proBNP, median (IQR) ([3]; Baseline): 3438 (597-4175) pg/ml | Plasma NT-proBNP, median ([3]; Day 3): 1813 pg/mL | Plasma NT-proBNP, median ([3]; Day 10): 778 pg/mL | Four-meter gait speed, median ([4]; Baseline): 0.56 m/s | Unable to walk 4 m, % of patients ([4]; Baseline): 35% | Unable to walk 4 m, absolute number of patients ([4]; Baseline): 7 | Four-meter gait speed, median [4, 9]: 0.66 m/s | Unable to walk 4 m, % of patients [4, 9]: 25% | Unable to walk 4 m, absolute number of patients [4, 9]: 5 | Four-meter gait speed, median [4, 10]: 0.86* m/s | Unable to walk 4 m, % of patients [4, 10]: (15)^# % | Unable to walk 4 m, absolute number of patients [4, 10]: 3 | Level of dyspnea: markedly or moderately improved, absolute number of patients [5, 11]: 8 | Level of dyspnea: markedly or moderately improved, percentage of patients [5, 11]: (40)^# % | Level of dyspnea: markedly or moderately worsened, absolute number of patients [5, 9]: 1 | Level of dyspnea: markedly or moderately worsened, percentage of patients [5, 9]: (5)^# % | Level of dyspnea: markedly or moderately improved, absolute number of patients [5, 10]: 12 | Level of dyspnea: markedly or moderately improved, percentage of patients [5, 10]: (60)^# % | Level of dyspnea: markedly or moderately worsened, absolute number of patients [5, 10]: 1 | Level of dyspnea: markedly or moderately worsened, percentage of patients [5, 10]: (5)^# % | Congestion: moderate or severe edema, absolute number of patients ([6]; Baseline): 15 | Congestion: moderate or severe edema, percentage of patients ([6]; Baseline): (75) % | Congestion: moderate or severe rales, absolute number of patients ([6]; Baseline): 16 | Congestion: moderate or severe rales, percentage of patients ([6]; Baseline): (80) % | Congestion: moderate or severe edema, absolute number of patients [6, 9]: 10 | Congestion: moderate or severe edema, percentage of patients [6, 9]: (50) % | Congestion: moderate or severe rales, absolute number of patients [6, 9]: 8 | Congestion: moderate or severe rales, percentage of patients [6, 9]: (40)^# % | Congestion: moderate or severe edema, absolute number of patients [6, 10]: 6 | Congestion: moderate or severe edema, percentage of patients [6, 10]: (30)^# % | Congestion: moderate or severe rales, absolute number of patients [6, 10]: 5 | Congestion: moderate or severe rales, percentage of patients [6, 10]: (25)^# % | Ability of self-care, absolute number of patients ([7]; Baseline): 5 | Ability of self-care, percentage of patients ([7]; Baseline): 25% | Ability of self-care, absolute number of patients [7, 9]: 7 | Ability of self-care, percentage of patients [7, 9]: 35% | Ability of self-care, absolute number of patients [7, 10]: 17 | Ability of self-care, percentage of patients [7, 10]: (85)* % | Clinical signs of cardiac decompensation (congestion, dyspnea, circulating NT-proBNP) [8]: ameliorates clinical signs of cardiac decompensation | Clinical status of hospice patients [8]: markedly improves the clinical status
